Legend:
[1] = system: cerebral infarction induced Sprague-Dawley rat models; assay: Cerebral infarction animal experiment: middle cerebral artery blockage/reperfusion, infarct volume by TTC dye; type: in vivo; conditions: 3000 IU/kg EPO injected right after reperfusion, measured after 24 hours
Excerpt: In the present experiment, Spague-Dawley (SD) rats weighing about 280 g to about 330 g were used, which were purchased from Koatech Inc. (Seoul, Korea). The number of rats used was 39, wherein 13 of them were used as a control group and another 26 were divided into 13 in a MKX-2 treatment group and 13 in an EPO treatment group.
To induce cerebral infarction, a method of temporarily blocking a left middle cerebral artery and then reperfusing the same was used, and an intraluminal filament technique, which was modified from the Koizumi method was used. Then, each SD rat was anesthetized with a mixture gas of 70% nitrous oxide and 30% oxygen along with isoflurane (3% for induction and 2% for surgical procedure). During the surgery, an excision was made slightly leftwards from the center of the neck and the left common carotid artery was carefully separated without damaging surrounding vagus nerves. […]
The cerebral infarction area was measured by an image analyzer with LeicaQwin program (Leica Microsystem Image Solution Ltd., Cambridge, England) and a volume (mm^3) was calculated as a sum of infarct volumes (=infarct area of a slice×thickness) of the slices, and then an average and a standard deviation were calculated for each experimental group. […]

cardiomyocytes = assay: Cell survival of cardiomyocytes, MTT assay, 72 hours in PBS free of serum and nutrients, hypoxic condition; type: cell-based, Wister rat; conditions: 0 nM = 100%
Procedure: An 8 weeks old Wister rat was injected with ketamine and pentobarbital to quickly kill the […], and the heart was quickly separated from the mouse. An aorta was used to perfuse with Ca free Krebs-Henseleit buffer (KHB) solution, which was pre-heated to a temperature of about 34° C. to about 37° C., in heart direction. Thereafter, the KHB solution was switched to Hank's balanced salt solution (HBSS:GIBCO, Grand Island, N.Y.) containing 0.15% class II collagenase (Cooper Biomedical, Malvern, Pa.) and then perfused for about 30 to about 40 minutes. Thereafter, the product obtained therefrom was washed twice with a cell culture medium (Dulbecco's modified Eagle's medium, DMEM). Ventricles and atria were separated therefrom, ventricular tissues were thoroughly chopped and then stirred thoroughly for about 5 minutes in a shaker filled with cell culture medium (DMEM) containing class II collagenase that was pre-heated to a temperature of about 34° C. to about 37° C. Connective tissues that were not dissolved were filtered and a collagenase-containing solution was washed twice with the cell culture medium (DMEM). The product obtained therefrom was gently centrifuged at a speed of 10 g for 2 minutes, a supernatant obtained therefrom was separated and removed, and cell components were washed three times with a cell culture medium (DMEM) solution containing 1% fetal bovine serum (FBS; Sigma Chemical, St. Louis, Mo.). Thereafter, the cells obtained therefrom were stabilized in a cell culture medium (DMEM), 10% FBS, 10 mM N-2-hydroxyethylpiperazine-N′-2-ethanesulfonic acid (HEPES, GIBCO Laboratories, Grand Island, N.Y.), 2 mM L-glutamine, penicilin-stereptomycin (100 IU/mL, GIBCO) for 60 minutes.
Thereafter, the cells were divided in a 6-well plate at a density of 20×10^3 cells/cm^2 and then bromodeoxyuridine (BrdU, 10 uM, Sigma-Aldrich) was added to the cell culture medium over 3 days to prevent the proliferation of fibroblasts and progenitor cells (Lokuta et al, 1994; Miragoli et al., 2006). The cells were cultured in an incubator under conditions of 95% of O2, 5% of CO2, and a temperature of 37° C. for the next experiment.
Cells were seeded in a 96-well plate at a density of 2×10^4 cells/well and 200 ul for each well. In this regard, cell confluence was set at about 70% to about 80%. After 24 hours, when the cells have been stabilized, a 26 gauge or 28 gauge needle was used to remove a preexisting medium from the wells. 200 ul of PBS free of serum and nutrients was added to each well, the wells were divided into erythropoietin (EPO) treatment groups and MKX-2 treatment groups, which were further divided into experimental groups according to concentrations of 0 nM, 0.1 nM, 1 nM, 10 nM, 100 nM, and 1000 nM and then treated with a drug for 72 hours in a hypoxic condition, and then the cells were subjected to an MTT assay to compare cell survival rates. The EPO used was an Eporon injection (Dong-A Pharmaceuticals, Korea). All experimental groups for each concentration included 7 wells.
After a predetermined treatment time, 3-[4,5-dimethylthiazol-2-yl]-2,5-diphenyl tetrazolium bromide (MIT, Sigma, M2128) that was dissolved in a phosphate buffered saline (PBS) and then sterilization filtered by using a membrane filter having a thickness of 0.22 um was added to each well in an amount of 100 ul at a concentration of 1 mg/ml. In this regard, an MTT reagent was used after wrapping the MTT reagent with a foil sheet to block from light. […]

Substance: EPO: erythropoietin; the EPO used was an Eporon injection (Dong-A Pharmaceuticals, Korea)
- volume of cerebral infarction [1]: 246.27 ± 37.52 mm^3
- cell survival rate compared with 0 nM (cardiomyocytes; 0.1 nM): not substantially different
- cell survival rate compared with the initial condition (cardiomyocytes; 1 nM): substantially decreased
- cell survival rate (cardiomyocytes; 10 nM): 94.52 ± 4.36%
- cell survival rate (cardiomyocytes; 100 nM): 102.64 ± 2.69%
- cell survival rate (cardiomyocytes; 1000 nM): 106.97 ± 1.99%
